Measured values taken from patent US20220195360A1, “Additive Manufacturing of Functional Myocardial Tissue” (The United States of America, as represented by the …, priority 2017, published 2022).
Where two headings read alike, the source gives them in different places.

Key:
Type in all cases: cell-based
hiPSC-cardiomyocytes = conditions: human
Experimental: The seeding of hiPSC-cardiomyocytes can follow the same procedure that is described above for neonatal rat cardiomyocytes, except that a Roswell Park Memorial Institute (RPMI)-1640 medium containing 1×B27 supplements (by GIBCO®) can be used for culturing. Other choices in the prior art that are known for culturing cardiomyocytes might also be possible.
(§1) Live/Dead staining was performed according to the manufacturer's instructions (THERMO FISHER®). Beating of the cardiomyocytes was observed using an optical microscope and analyzed using custom-coded MATLAB programs, as known in the prior art. Monitoring of the beating behavior was performed every day until contractions were no longer observed. […] The levels of secreted vWF were measured by an ELISA kit (ab189571) by ABCAM®.
(§2) The same procedures for fabricating the vascular beds using bioprinted microfibrous scaffolds as described above were used, but hiPSC-cardiomyocytes were subsequently seeded instead of the neonatal rat cells. […] The human-derived myocardial organoids seemed to have slightly lower endurance at all of the time points analyzed in comparison to those of rat origin (FIG. 8C versus FIG. 7C). […]

[1] = tested on: neonatal rat cardiomyocytes; conditions: 6 day
Experimental: For testing of the systems and methods according to several embodiments, neonatal rat cardiomyocytes were seeded following the formation of a layer of confluent endothelium at the peripheries the microfibers of the scaffolds, which generally occurred in 15 days. Freshly isolated cardiomyocytes were suspended in DMEM at a final concentration of 1×10^6 cells m/L. The scaffolds were individually placed on top of a thin layer of hydrophobic polydimethylsiloxane (PDMS). Approximately 40 μL of cell suspension was dropped to cover each scaffold, and incubated at 37° C. for 2 hours, to allow the cardiomyocytes to adhere onto the microfibers. […]
as §1, with “art.” for “art. Monitoring of the beating behavior was performed every day until contractions were no longer observed.”, “ABCAM®. […]” for “ABCAM®.”
(§3) For example, the endothelialized-myocardium-on-a-chip model can be used to assess treatment by a common anti-cancer drug, doxorubicin. Unlike other pre-existing models, where only individual cell types were typically included, doxorubicin elicited dose-dependent responses towards both cardiomyocytes and endothelial cells when assessed using the systems and methods of several embodiments.

[2] = tested on: endothelial cells (HUVECs); conditions: human, 6 day
Experimental: (§4) Both bioink 26 and CaCl2) solutions can be maintained at 37° C. before use. HUVECs can be re-suspended in the bioink at a concentration of 1×10^7 cells/mL. Following the bioprinting and the subsequent crosslinking processes, the constructs can be washed with PBS to remove excess CaCl2). After washing, the constructs can be cultured in endothelial cell growth medium (EGM) at 37° C. and 5% CO2 volume throughout a period of up to 33 days. The EGM/CO2 medium can be changed twice in the first day and then every 2 days thereafter.
as §1, §3

[3] = tested on: endothelial cells (HUVECs); test: vWF expression by the endothelial component of the endothelialized-human-myocardium-on-a-chip; conditions: different doses, human model (FIG. 8D) compared with rat model (FIG. 7D)
Experimental: as §4, §1, §2

With `COc1cccc2c1C(=O)c1c(O)c3c(c(O)c1C2=O)C[C@@](O)(C(=O)CO)C[C@@H]3O[C@H]1C[C@H](N)[C@H](O)[C@H](C)O1` [doxorubicin] the “relative beating of the hiPSC-cardiomyocytes” value (hiPSC-cardiomyocytes; 10 μM) was 66.0%, the “relative beating of the hiPSC-cardiomyocytes” value (hiPSC-cardiomyocytes; 100 μM) was 2.78% and the “relative beating rate of the cardiomyocytes” value ([1]; 10 μM) was 70.5%. The “relative beating rate of the cardiomyocytes” value ([1]; 100 μM) was 1.62%, the “levels of von Willebrand factor (vWF) secreted by the endothelial cells” value ([2]; 10 μM) was 76.0% and the “levels of von Willebrand factor (vWF) secreted by the endothelial cells” value ([2]; 100 μM) was 35.3%. The “toxicity on the endothelial component of the constructs (vWF expression)” value [3] was “corresponded well with that observed for the rat myocardial organoids”.
